The test system of one test is PC12 cells. In words: Neuritogenesis in PC12 cells. Type of test: cell-based, rat. Further details: key to Neuritogenesis: fraction of cells bearing neurites (mean ± SEM). The gist of the method:
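Rat pheochromocytoma PC12 cells on poly-ornithine were treated with AIT-082 alongside saturating NGF (40 ng/ml) from plating for 48 h, then formalin-fixed. Neurites ≥1 cell-body diameter with growth cone were counted; the neurite-bearing fraction is expressed relative to NGF alone (100%), mean ±SEM of 6 cultures.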

The test system of a further test is NGF. Put plainly: NGF release from rat cultured astrocytes (ELISA). The conditions noted are these: for release of NGF from astrocytes: exposure for 24 hours. Type of test: cell-based. The protocol: The dose response for AIT-082 and guanosine on nerve growth factor and S100β protein release from rat culture astrocytes is shown in FIG. 30. NGF was assayed by a double-site ELISA, using a monoclonal anti-NGF antibody, coupled or not to β-galactosidase according to the method of I. D. Laviada et al., “Phosphatidylcholine-Phospholipase C Mediates the Induction of Nerve Growth Factor in Cultured Glial Cells,” FEBS Lett. 364: 301-304 (1995).
The NGF and S100β protein were measured by removing the cultured medium for the ELISA assays at each indicated time point.
NGF and TGFβ2 levels were assayed in the culture medium of the astrocytes by specific ELISA assays using kits from Roche (Germany) and Promega (USA) respectively. NGF basal levels were 56.3±3.2 pg/ml. TGFβ2 levels were 9.1±0.06 pg/ml.
In FIG. 61, the dose-response curves of NGF and TGFβ2 release from rat cultured astrocytes as the result of exposure to AIT-082 are shown.

As to `O=C(CCn1cnc2c(=O)[nH]cnc21)Nc1ccc(C(=O)O)cc1` [AIT-082, N-4-carboxyphenyl-3-(6-oxohydropurin-9-yl)propanamide], the Neuritogenesis turned out to be 0.220 ± 0.010 in the test with PC12 cells (AIT-082 10 μM, L-NAME 0.1 μM); 0.302 ± 0.027 in the test with PC12 cells (AIT-082 10 μM, L-NAME 1.0 μM); 0.254 ± 0.018 in the test with PC12 cells (AIT-082 10 μM, L-NAME 10.0 μM); 0.254 ± 0.008 with PC12 cells (AIT-082 10 μM, L-NAME None); 0.257 ± 0.016 in the test on PC12 cells (AIT-082 100 μM, L-NAME 0.1 μM); 0.232 ± 0.019 in the test with PC12 cells (AIT-082 100 μM, L-NAME 1.0 μM). The Neuritogenesis worked out at 0.289 ± 0.006 with PC12 cells (AIT-082 100 μM, L-NAME 10.0 μM) and 0.309 ± 0.027 in the test on PC12 cells (AIT-082 100 μM, L-NAME None). Moreover, the “Proportion of cells bearing neurites, AIT-082 + NGF” value with PC12 cells (AIT-082 10 mM + NGF 40 ng/ml, no inhibitor) is on record as 0.26 ± 0.01; with PC12 cells (AIT-082 + NGF 40 ng/ml, Methemoglobin 1 μM), 0.17 ± 0.02; in the test on PC12 cells (AIT-082 + NGF 40 ng/ml, Methylene Blue 5 μM) it was 0.10 ± 0.01; in the test with PC12 cells (AIT-082 + NGF 40 ng/ml, Zn Protoporphyrin IX 1 μM) it was 0.13 ± 0.01. Also, in the test on PC12 cells (AIT-082 10 mM, no NGF, no inhibitor, 48 hours), the “Proportion of cells bearing neurites, AIT-082 alone” value came to 0.2 ± 0.02. For the same molecule, in the test with PC12 cells (PC12 cells, 48 hours), the “concentration effective in stimulating neuritogenesis and enhancing NGF-stimulated neuritogenesis” value was 1 mM. In the test on PC12 cells (PC12 cells, 48 hours), the “neuritogenesis compared with NGF” value is listed as “as effective as NGF”. Also, the “enhancement of the optimal effects of NGF on neuritogenesis” value in the test with PC12 cells (with 40 ng/ml NGF, 48 hours) came out at 30%. For the same molecule, in the test with NGF (AIT-082 100 μM), the “time after exposure at which release of NGF was enhanced” value was found to be 12 h. Also, in the test with NGF (AIT-082 100 μM), the “time of maximum release of NGF” value came to 24 h. Besides, the “release of NGF from astrocytes” value in the test with NGF is on record as “dose-dependent increase”. Besides, the “increase of NGF production as compared to a control” value in the test with NGF (rat cultured astrocytes) is “about 2.5 fold”.
As to `Nc1nc2c(ncn2[C@@H]2O[C@H](CO)[C@@H](O)[C@H]2O)c(=O)[nH]1` [guanosine], the “neurite outgrowth in the absence of NGF” value in the test on PC12 cells (compound alone) is given as “slightly increased the proportion of cells with neurites”. In addition, the “enhancement of NGF-induced neurite outgrowth” value in the test with PC12 cells (in the presence of NGF, 48 hours) is “enhanced the neurite outgrowth induced by NGF”. Moreover, the “release of NGF from astrocytes” value in the test with NGF is recorded as “dose-dependent increase”.

Source of the values: patent US6338963B1, “Use of carbon monoxide dependent guanylyl cyclase modifiers to stimulate neuritogenesis” (NeoTherapeutics, Inc., priority 1994, dated 2002).
